Measured values from patent US11617711B2, “Compositions and methods for dental care” (UNIVERSITY OF WASHINGTON, priority 2018, dated 2023).
“Also recorded” adds a separate entry of the source.

Assays:
[1] = Thermal cycling of remineralized dentin samples in artificial saliva, SEM; parameters: species or system human; details: 3 rounds remineralized, 2,500 cycles (90 days) between 5 C and 50 C
Experimental: To ensure the thermal durability of the newly formed mineral layer on the dentin surface, thermal cycling tests were conducted on remineralized samples. After three rounds of peptide-guided remineralization, the sample was placed in a vial containing an artificial saliva solution consisting of 130 mM KCl, 20 mM HEPES, 1.5 mM CaCl2, 0.9 mM KH2PO4, and 1 mM NaCl. In order to mimic the temperature changes in the natural oral environment, the remineralized sample was cycled between 5 C and 50 C, holding for 30 seconds at each temperature. SEM images were taken of the mineral layer after 200 cycles (6 days) and 2,500 cycles (90 days) to compare the effects of thermal cycling at different time periods.

[2] = Fluoride delivery to tooth surface, EDXS of mineral layer; details: tooth surface treated with shADP5, then ionic fluoride (1100 ppm) delivered with ionic PO4
Experimental: shADP5 enables the delivery of ionic fluoride delivery to the tooth surface. After the tooth surface was treated shADP5, ionic fluoride was delivered with ionic PO4.

[3] = Visual observation of diffusion and mineralization reaction of calcium and phosphate gels on glass slide; assay type: physicochemical; details: gel formulation, calcium and phosphate gel drops on glass slide
Description: Active ingredients stored separately in their respective gel/varnish/toothpaste formulations is important in preventing premature mineralization reactions. In all formulations, the peptide is to be delivered first, then the ionic calcium/phosphate or ionic calcium/phosphate/fluoride are delivered second. Understanding the reaction time is useful to characterize the prescribed treatment time and procedure. To inform treatment protocol, an experiment was designed in which two drops of gels containing calcium and phosphate were mixed with peptide gel and placed next each other on a glass slide close enough that upon subsequent spreading of the two droplets, they would come to contact with each other at their respective edges. Mineralization reactions were monitored visually be observing parts of the gels turning from clear (unreacted) to white (reacted).
Then the inverses of both quantities were taken to enable the determination of the diffusion constant based on the following equation: 1/t=D (1/x), where t is time, x is the width of reacted mineral (appear as white in FIG. 18) and D is the diffusion constant in units of mm/min. Shown in FIG. 19 is an example of the derived diffusion constants.

SYEKSHSQAINTDRT [sADP5, shortened amelogenin derived peptide 5]
mineral layer after thermal cycling [1]: still present; also recorded: thermally stable

SYENSHSQAINVDRT [shADP5]
fluoride in the mineral layer (EDXS) [2]: incorporated
extent of mineralization reaction versus without peptide [3]: more extensive
